Where two headings read alike, the source gives them in different places.
What was measured:
Format in all cases: in vivo, human
[1] = tested on: adult Japanese patients with SBS-IF; experiment: Plasma citrulline, biomarker of intestinal epithelial mass, change from baseline
Protocol: Concentrations of plasma citrulline, a biomarker of intestinal epithelial mass, were measured at baseline; weeks 4, 8, 16, and 24; and then every 2 months thereafter up to 30 months of treatment. Patients who continued into SHP633-307 from SHP633-306 had measurements taken at month 12, while those continuing from TED-C14-004 had measurements taken every 3 months.
Efficacy endpoints were defined in an analogous manner to previous pivotal studies. These included a clinically meaningful reduction in weekly PS volume of ≥ 20% [17] measured between baseline and both 20 and 24 weeks for TED-C14-004 and SHP633-306, and a continued reduction in weekly PS volume of ≥ 20% from the baseline in core studies at each scheduled visit until the last visit before the interim data cut-off of SHP633-307. Other efficacy endpoints included changes in absolute and percentage weekly PS volumes from the baseline in the core studies at each study visit, the number of days per week of PS, the number of patients who achieved enteral autonomy at the end of treatment or the data cut-off, and the changes in plasma citrulline levels from baseline in the core studies. The primary efficacy data were derived from patient diaries and compared against investigator-prescribed data captured in electronic case report forms.

[2] = tested on: adult Japanese patients with SBS-IF; experiment: Anti-teduglutide antibodies in blood samples
Protocol: (§1) In TED-C14-004 and SHP633-306, blood samples for PK evaluations were taken pre-dose and at 0.25, 0.5, 1, 2, 3, 4, 6, 8, 10, and 12 h post-dose during the first 12 weeks of treatment with teduglutide. In SHP633-307, patients continuing from study TED-C14-004 had blood samples for PK evaluations taken pre-dose and at […], and 1, 2, 3, 4, 6, 8, 10, and 12 h post-dose at the first extension study visit. Patients continuing from SHP633-306 had blood samples taken pre-dose and 1 and 2 h post-dose at the first extension study visit. Blood samples to test for the presence of antibodies to teduglutide were taken at baseline and weeks 12 and 24 in SHP633-306; ≥ 14 h after dosing at baseline and weeks 12 and 24, and then every 6 months thereafter in TED-C14-004; and every 3 months in SHP633-307.
Safety analyses included the monitoring of adverse events (AEs), body weight, BMI, vital signs, 12-lead electrocardiogram (ECG), serum biochemistry, hematology, and presence of antibodies to teduglutide. AEs were coded using the Medical Dictionary for Regulatory Activities versions 17.1 (TED-C14-004) and 21.0 (SHP633-306 and SHP633-307). Specifically, AEs were treatment-emergent AEs (TEAEs), defined as any unfavorable and unintended sign (including any abnormal laboratory finding), symptom, or disease that occurred during treatment with teduglutide, whether or not the event was considered to be related to the study drug by the clinical study investigator. AEs were also categorized as mild, moderate, or severe. […] AEs were considered related to treatment with teduglutide, or its administration, based on the investigator's medical judgment.

[3] = Plasma pharmacokinetics of teduglutide, non-compartmental analysis; settings: for half-life / AUC(0-inf) / AUC(0-t) / Cmax / Tmax: human, plasma, 0.05 mg/kg; for half-life: read-out: t½ (converted)
Protocol: as §1
Single-dose PK parameters were estimated using a non-compartmental analysis and included the maximum plasma concentration of teduglutide (Cmax), time to Cmax (tmax), terminal half-life elimination (t½), area under the plasma concentration–time curve (AUC) from time 0 to infinity (AUC0-inf), and AUC from time 0 to the last measurable concentration (AUC0-t).

[4] = 24 weeks, SHP633-306, n = 6, mean ± SD
[5] = 24 weeks, TED-C14-004, n = 9, mean ± SD
[6] = 30 months, TED-C14-004, n = 7, mean ± SD
[7] = interim cut-off of the extension study, patients from SHP633-306, mean ± SD
[8] = interim data cut-off of SHP633-307, patients from TED-C14-004, up to 57 months, n = 7, mean ± SD
[9] = sc, SHP633-306, plasma, 0.05 mg/kg SC once daily, n = 7, mean ± SD
[10] = sc, TED-C14-004, plasma, 0.05 mg/kg SC once daily, n = 8, mean ± SD
[11] = subcutaneous, SHP633-307, patients from TED-C14-004, first extension study visit, mean ± SD

In the case of `CC[C@H](C)[C@H](NC(=O)[C@H](Cc1ccccc1)NC(=O)[C@H](CC(=O)O)NC(=O)[C@H](CCCNC(=N)N)NC(=O)[C@H](C)NC(=O)[C@H](C)NC(=O)[C@H](CC(C)C)NC(=O)[C@H](CC(N)=O)NC(=O)[C@H](CC(=O)O)NC(=O)[C@H](CC(C)C)NC(=O)[C@@H](NC(=O)[C@@H](NC(=O)[C@H](CC(N)=O)NC(=O)[C@H](CCSC)NC(=O)[C@H](CCC(=O)O)NC(=O)[C@H](CC(=O)O)NC(=O)[C@H](CO)NC(=O)[C@H](Cc1ccccc1)NC(=O)[C@H](CO)NC(=O)CNC(=O)[C@H](CC(=O)O)NC(=O)CNC(=O)[C@@H](N)Cc1c[nH]cn1)[C@@H](C)O)[C@@H](C)CC)C(=O)N[C@@H](CC(N)=O)C(=O)N[C@@H](Cc1c[nH]c2ccccc12)C(=O)N[C@@H](CC(C)C)C(=O)N[C@H](C(=O)N[C@@H](CCC(N)=O)C(=O)N[C@H](C(=O)N[C@@H](CCCCN)C(=O)N[C@H](C(=O)N[C@H](C(=O)N[C@@H](CC(=O)O)C(=O)O)[C@@H](C)O)[C@@H](C)CC)[C@@H](C)O)[C@@H](C)CC` [teduglutide], the “Plasma citrulline increase from baseline” value [1, 4] is reported as 14.3 ± 10.9 µM, the “Plasma citrulline percent increase from baseline” value [1, 4] is reported as 106.3% ± 114.9% and the “Plasma citrulline increase from baseline” value [1, 5] is reported as 15.0 ± 17.4 µM. The “Plasma citrulline percent increase from baseline” value [1, 5] was 86.9% ± 112.3%, the “Plasma citrulline increase from baseline” value [1, 6] was 28.3 ± 24.1 µM and the “Plasma citrulline percent increase from baseline” value [1, 6] was 135.0% ± 84.2%. For the same molecule, the “Plasma citrulline increase from baseline” value [1, 7] was 13.0 ± 5.6 µM, the “Plasma citrulline percent increase from baseline” value [1, 7] was 79.1% ± 33.5% and the “Plasma citrulline increase from baseline” value [1, 8] was 19.2 ± 18.9 µM. For the same molecule, the “Plasma citrulline percent increase from baseline” value [1, 8] was 103.6% ± 88.7%, the “Patients positive for anti-teduglutide antibodies” value ([2]; 24 weeks, 5 out of 14 patients (n = 4 TED-C14-004; n = 1 SHP633-306)) was 35.7% and the “Patients with low titers of anti-teduglutide antibodies as well as neutralizing antibodies” value ([2]; 39 months, patients from TED-C14-004 in SHP633-307, two patients) was 40.0%. For the same molecule, the Anti-teduglutide antibodies ([2]; 51 or 54 months, n = 7) was “No anti-teduglutide antibodies were detected”, the “Patients positive at 24 weeks who also tested positive up to 22 months” value ([2]; TED-C14-004) was “Three of the 4 patients” and the “Association between anti-teduglutide antibodies and a lack of efficacy” value ([2]; all studies) was “no association”. The “Patients positive for antibodies to teduglutide” value ([2]; month 12, SHP633-307 patients from SHP633-306, 2 out of 4) was 50.0%, the “Association of anti-teduglutide antibodies with AEs of hypersensitivity or teduglutide-related hypersensitivity reaction” value ([2]; patients in whom antibodies were detected) was “no association” and the “Pre-dose concentrations after multiple dosing” value ([3]; SHP633-307, patients from SHP633-306, sparse PK sampling, suggests no accumulation) was “below the lower limit quantification”. The half-life ([3]; sc, SHP633-306, plasma, 0.05 mg/kg SC once daily, n = 6, mean ± SD) was 66 ± 12 min, the AUC(0-inf) [3, 9] was 252 ± 85.4 ng·h/mL and the AUC(0-t) [3, 9] was 240 ± 80.7 ng·h/mL. For the same molecule, the Cmax [3, 9] was 49.5 ± 16.4 ng/mL, the Tmax [3, 9] was 3.6 ± 1.6 h and the AUC(0-inf) [3, 10] was 204 ± 51.1 ng·h/mL. The AUC(0-t) [3, 10] was 201 ± 51.6 ng·h/mL, the Cmax [3, 10] was 49.7 ± 19.7 ng/mL and the Tmax [3, 10] was 2.6 ± 1 h. The half-life [3, 10] was 72 ± 42 min, the AUC(0-inf) [3, 11] was 209 ± 72.7 ng·h/mL and the AUC(0-t) [3, 11] was 200 ± 71.6 ng·h/mL. The Cmax [3, 11] was 54.1 ± 18.7 ng/mL and the Tmax [3, 11] was 2.1 ± 0.4 h.

Source: article PMC9950205, “Efficacy, safety, and pharmacokinetics of teduglutide in adult Japanese patients with short bowel syndrome and intestinal failure: two phase III studies with an extension” (Surgery Today, 2022)
